Key:
[1] = tested on: DU145; experiment: DU145 scattering; format: cell-based; details: Homo sapiens, DU-145; DU145 cells; read-out: CMET DU145 SCATT HEAL- IC50 UM
[2] = molecular target: T1, VEGF receptor KDR (Homo sapiens, UniProt P35968); experiment: In vitro receptor tyrosine kinase assay, VEGF receptor KDR (DELFIA); format: biochemical; details: GST-VEGFR2 806-1356, ATP 0.6 uM; read-out: VEGFR IC50
T1 construct: made in house; host or cells: Sf9 cells (Spodoptera frugiperda), recombinant baculovirus
T1 sequence (P35968 806-1356): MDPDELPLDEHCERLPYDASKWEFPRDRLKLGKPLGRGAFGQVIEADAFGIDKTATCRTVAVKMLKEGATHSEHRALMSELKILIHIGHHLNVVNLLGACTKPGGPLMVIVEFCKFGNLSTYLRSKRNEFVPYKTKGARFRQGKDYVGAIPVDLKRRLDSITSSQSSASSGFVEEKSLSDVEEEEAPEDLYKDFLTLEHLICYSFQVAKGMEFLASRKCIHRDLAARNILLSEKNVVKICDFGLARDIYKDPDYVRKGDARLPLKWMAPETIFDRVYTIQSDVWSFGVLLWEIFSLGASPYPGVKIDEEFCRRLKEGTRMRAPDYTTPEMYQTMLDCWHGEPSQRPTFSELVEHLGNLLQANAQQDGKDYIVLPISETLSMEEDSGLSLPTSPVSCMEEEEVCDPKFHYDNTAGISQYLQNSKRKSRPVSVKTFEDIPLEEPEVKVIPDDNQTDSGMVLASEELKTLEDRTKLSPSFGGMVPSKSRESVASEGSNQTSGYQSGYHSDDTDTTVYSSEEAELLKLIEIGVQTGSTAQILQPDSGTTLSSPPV
Text: In the case of VEGF receptor KDR a 1.6-kb cDNA corresponding to the catalytic domain of VEGFR2 or KDR (Genbank accession number AF035121 amino acid 806 to 1356) is cloned into the Pst I site of the pDEST20 Gateway vector (Invitrogen) for the production of a GST-tagged version of that enzyme.
The GST-VEGFR2806-1356 protein is expressed in Sf9 cells (Spodoptera frugiperda) upon infection with recombinant baculovirus construct.
The supernatant is loaded onto a GST-agarose column (Sigma) equilibrated with PBS pH 7.3. Following a four column volume (CV) wash with PBS pH 7.3+1% Triton X-100 and 4 CV wash with buffer B (50 mM Tris pH 8.0, 20% glycerol and 100 mM NaCl), bound proteins are step eluted with 5 CV of buffer B supplemented with 5 mM DTT and 15 mM glutathion. […] Final GST-VEGFR2806-1356 protein preparations concentrations are about 0.7 mg/ml with purity approximating 70%.

[3] = molecular target: recombinant human c-Met/HGF receptor (Homo sapiens, UniProt P08581); experiment: In vitro receptor tyrosine kinase assay, c-Met/HGF receptor (DELFIA)
Sequence of recombinant human c-Met/HGF receptor (P08581 1078-1337): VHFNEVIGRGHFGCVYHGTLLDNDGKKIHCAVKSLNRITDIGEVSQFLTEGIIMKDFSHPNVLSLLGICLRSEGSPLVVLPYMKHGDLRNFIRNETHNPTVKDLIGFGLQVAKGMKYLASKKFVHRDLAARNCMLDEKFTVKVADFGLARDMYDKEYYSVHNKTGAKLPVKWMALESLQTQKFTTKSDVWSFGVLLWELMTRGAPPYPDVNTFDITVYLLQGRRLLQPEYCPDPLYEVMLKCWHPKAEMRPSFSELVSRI

[4] = molecular target: T2, c-Met (Homo sapiens, UniProt P08581); experiment: c-Met phosphorylation direct ELISA in MKN45 cells; format: cell-based; details: 3 h treatment
T2 construct: endogenous in cells; host or cells: MKN45 gastric carcinoma cells
T2 sequence (P08581 25-1390): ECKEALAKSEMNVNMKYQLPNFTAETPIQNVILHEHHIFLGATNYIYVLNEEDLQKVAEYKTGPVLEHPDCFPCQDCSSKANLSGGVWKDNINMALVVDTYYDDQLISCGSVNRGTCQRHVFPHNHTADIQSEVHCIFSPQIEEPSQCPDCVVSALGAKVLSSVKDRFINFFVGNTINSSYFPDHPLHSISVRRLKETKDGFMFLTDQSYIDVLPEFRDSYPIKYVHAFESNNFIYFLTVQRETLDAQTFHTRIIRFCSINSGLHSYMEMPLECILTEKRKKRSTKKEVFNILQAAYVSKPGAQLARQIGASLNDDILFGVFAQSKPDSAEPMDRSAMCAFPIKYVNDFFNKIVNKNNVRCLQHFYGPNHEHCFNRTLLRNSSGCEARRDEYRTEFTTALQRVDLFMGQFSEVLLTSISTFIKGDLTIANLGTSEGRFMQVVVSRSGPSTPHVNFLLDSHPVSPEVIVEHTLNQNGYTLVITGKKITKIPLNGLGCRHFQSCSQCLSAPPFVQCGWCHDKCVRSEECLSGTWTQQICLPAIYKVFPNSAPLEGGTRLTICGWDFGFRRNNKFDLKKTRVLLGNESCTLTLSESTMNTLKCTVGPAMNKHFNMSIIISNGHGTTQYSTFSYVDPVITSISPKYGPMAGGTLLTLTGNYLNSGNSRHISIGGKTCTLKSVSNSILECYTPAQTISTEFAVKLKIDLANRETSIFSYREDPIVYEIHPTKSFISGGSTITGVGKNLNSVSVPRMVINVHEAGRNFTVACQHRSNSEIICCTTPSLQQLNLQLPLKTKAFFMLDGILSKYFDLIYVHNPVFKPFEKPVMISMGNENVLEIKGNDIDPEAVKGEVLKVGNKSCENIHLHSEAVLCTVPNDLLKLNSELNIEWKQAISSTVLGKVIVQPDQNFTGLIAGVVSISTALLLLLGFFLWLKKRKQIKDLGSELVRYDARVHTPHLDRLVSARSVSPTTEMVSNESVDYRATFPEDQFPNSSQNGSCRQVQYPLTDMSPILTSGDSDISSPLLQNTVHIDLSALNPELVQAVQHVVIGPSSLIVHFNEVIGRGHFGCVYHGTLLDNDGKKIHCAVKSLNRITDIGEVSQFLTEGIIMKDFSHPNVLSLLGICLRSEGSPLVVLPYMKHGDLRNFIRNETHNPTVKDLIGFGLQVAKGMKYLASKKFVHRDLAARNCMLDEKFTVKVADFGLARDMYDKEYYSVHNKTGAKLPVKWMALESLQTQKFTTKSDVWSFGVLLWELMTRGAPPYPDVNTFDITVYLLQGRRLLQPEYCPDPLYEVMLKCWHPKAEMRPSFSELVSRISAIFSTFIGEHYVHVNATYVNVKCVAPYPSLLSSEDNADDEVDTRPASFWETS
Procedure: Alternatively, the following assay is used to determine inhibition of c-Met phosphorylation.
The c-Met receptor is expressed in numerous cancer cell lines derived from tumors of epithelial origin. In MKN45 gastric carcinoma cells the c-Met gene is amplified, resulting in several-fold overexpression of the receptor and its constitutive activation.
Cell treatments: MKN45 cells are seeded into wells of 96-well plates at a density of 3×10^4 cells/well in RPMI medium supplemented with 10% FBS. […] Inhibitors are added to the medium in triplicate wells at the indicated doses.
After an overnight protein binding incubation at 4° C., lysates are aspirated and wells are blocked for 1 h at 37° C. in TBST supplemented with 5% BSA. Plates are incubated with the primary antibodies anti-phospho-Tyrosine (Millipore, 4G10) diluted 1/15000 in TBST supplemented with 5% BSA for 1 h at room temperature. Plates are washed 3 times on a plate washer (SkanWasher, Molecular Devises), and incubated with the reporter antibody […] (Sigma) diluted 1/15000 in TBST supplemented with 5% BSA, for 1 h at room temperature. Plates are washed 3 times with TBST using on a plate washer and subsequently incubated with chemiluminescent substrate solution (ECL, Roche). Luminescence signal is captured on a Polar Star Optima apparatus (BMG LabTech).
Average values of the triplicate samples are used to prepare IC50 curves using a 4-parameter fit model. These curves are calculated using, for example, GraFit 5.0 software. For assay standardization purpose, an internal control is included on each experimental test plate.

[5] = tested on: A549; experiment: A549 inhibition of wound healing; format: cell-based; details: Homo sapiens; A549 cells; read-out: A549 INHIB WND ING IC50 UM

| IC50 [1] | IC50 [2] | IC50 [3] | IC50 [4] | IC50 [5] | SMILES |
| --- | --- | --- | --- | --- | --- |
| > 1000 nM | < 250 nM | < 250 nM | 500 to 1000 nM | 250 to 500 nM | Cn1ccnc1-c1cc2nccc(Oc3ccc(NC(=O)c4cccc(-c5ccccc5)c4F)cc3F)c2s1 |
| > 1000 nM | > 1000 nM | < 250 nM | > 1000 nM | > 1000 nM | O=C(O)c1ccc(-c2cc3nccc(Oc4ccc(NC(=O)c5cnn(-c6ccccc6)c5C(F)(F)F)cc4F)c3s2)nc1 |
